Assay results taken from ChEMBL document CHEMBL4699591, “An efficient synthesis tetrazole and oxadiazole analogues of novel 2'-deoxy-C-nucleosides and their antitumor activity” (2020).

Tests used:
Type in all cases: functional
[1] = system: MDA-MB-231; test: Cytotoxicity against human MDA-MB-231 cells assessed as inhibition of cell growth at 10 uM incubated for 72 hrs by MTT assay relative to control
[2] = system: SK-OV-3; test: Cytotoxicity against human SK-OV-3 cells assessed as inhibition of cell growth at 2 uM incubated for 72 hrs by MTT assay relative to control
[3] = system: HeLa; test: Cytotoxicity against human HeLa cells assessed as inhibition of cell growth at 2 uM incubated for 72 hrs by MTT assay relative to control
[4] = system: MDA-MB-231; test: Cytotoxicity against human MDA-MB-231 cells assessed as inhibition of cell growth at 2 uM incubated for 72 hrs by MTT assay relative to control
[5] = system: PC-3; test: Cytotoxicity against human PC-3 cells assessed as inhibition of cell growth at 2 uM incubated for 72 hrs by MTT assay relative to control
[6] = system: PANC-1; test: Cytotoxicity against human PANC-1 cells assessed as inhibition of cell growth at 2 uM incubated for 72 hrs by MTT assay relative to control

Row | Compound | inhibition at 10 µM [1] | inhibition at 2 µM [2] | inhibition at 2 µM [3] | inhibition at 2 µM [4] | inhibition at 2 µM [5] | inhibition at 2 µM [6]
1 | CC(C)c1nc([C@H]2C[C@H](O)[C@@H](CO)O2)no1 | 9% | – | – | – | – | –
2 | Cc1nnc([C@@H]2C[C@H](O)[C@@H](CO)O2)o1 | 9% | – | – | – | – | –
3 | COc1cccc2c1C(=O)c1c(O)c3c(c(O)c1C2=O)C[C@@](O)(C(=O)CO)C[C@@H]3O[C@H]1C[C@H](N)[C@H](O)[C@H](C)O1 [DOXORUBICIN] | – | > 90% | > 90% | > 90% | > 90% | > 90%
